Data from paper PMC10706087, “The Subtype Selectivity in Search of Potent Hypotensive Agents among 5,5-Dimethylhydantoin Derived α1-Adrenoceptors Antagonists” (International Journal of Molecular Sciences, 2023).
Values joined by “and” are separate entries in the source; they are usually repeats but may differ in a detail not shown here. Equal entries are not always repeated.

Key:
[1] = target: T1, human adrenergic receptor α1A (Homo sapiens, UniProt P35348); assay: Intrinsic activity, aequorin luminescence functional assay at α1A-AR; type: cell-based; conditions: for α1A-AR Profile: agonist/antagonist profile; for IC50: cells expressing aequorin and human α1A, against phenylephrine, means of three independent experiments in duplicates; for Selectivity Ratio α1B/α1A: selectivity for α1A-AR (IC50(α1B-AR)/IC50(α1A-AR))
T1 sequence (P35348 1-466): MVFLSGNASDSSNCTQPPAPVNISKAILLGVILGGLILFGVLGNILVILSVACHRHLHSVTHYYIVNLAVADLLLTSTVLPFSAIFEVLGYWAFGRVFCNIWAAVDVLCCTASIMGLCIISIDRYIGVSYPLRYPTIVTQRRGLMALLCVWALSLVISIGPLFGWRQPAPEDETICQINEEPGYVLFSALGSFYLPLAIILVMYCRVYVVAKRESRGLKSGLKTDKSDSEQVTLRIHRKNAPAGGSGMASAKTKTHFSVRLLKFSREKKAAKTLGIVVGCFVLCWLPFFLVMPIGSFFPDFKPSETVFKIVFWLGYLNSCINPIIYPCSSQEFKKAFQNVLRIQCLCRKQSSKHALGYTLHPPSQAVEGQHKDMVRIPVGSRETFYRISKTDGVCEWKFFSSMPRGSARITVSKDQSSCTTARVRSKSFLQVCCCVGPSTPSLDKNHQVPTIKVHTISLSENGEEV
Procedure: (§1) The subtype selectivity for α1A and α1B was calculated as IC50(α1B-AR)/IC50(α1A-AR) and IC50(α1A-AR)/IC50(α1B-AR) ratio, respectively.
(§2) Intrinsic activity at the α1-AR subtypes studies were performed using the cells expressing mitochondrially-targeted aequorin and one of the human adrenergic receptor α1A or α1B (PerkinElmer, Boston, MA, USA), according to the manufacturer’s instructions. For measurement, frozen cells were thawed and re-suspended in 10 mL of assay buffer containing 5 μM “Coelenterazine h”. This cell suspension was put in a 10 mL Falcon tube, fixed onto a rotating heel, and incubated overnight at rt in the dark (8 rpm; 45° angle). Cells were diluted with Assay Buffer to 5000 cells/20 μL. […] The light emitted was recorded for 20 s. Cells with antagonists were incubated for 15 min at room temperature. […] Luminescence was measured using the multidetection microplate reader (POLARstar Omega, BMG LABTECH, Ortenberg, Germany).
(§3) All statistics were performed using GraphPad Prism, Version 6.0 (GraphPad Software, San Diego, CA, USA). In the radioligand binding study, data were analyzed by a one-site curve-fitting equation, and inhibition constants (Ki) values were calculated via the Cheng-Prusoff equation [63]. In functional studies, data were analyzed using a sigmoidal dose-response (variable slope) equation. Arterial blood pressure data were analyzed using a two-way ANOVA with Sidak’s post-hoc test for multiple comparisons. A p < 0.05 was considered statistically significant.

[2] = target: α1-adrenoceptors (α1-ARs), rat cerebral cortex; assay: Radioligand binding assay with [3H]-prazosin, affinity for α1-ARs; conditions: three independent experiments in duplicates, read-out: α1-adrenoceptor affinity Ki
Procedure: In the first step, all synthesized compounds (1–15) were tested in vitro for their affinity for α1-ARs on rat cerebral cortex by the radioligand binding assay using [^3H]-prazosin as a specific radioligand.
The affinity for α1-ARs was determined by radioligand binding assay on rat cerebral cortex using [3H]-prazosin as a specific radioligand. The brains were homogenized in 20 volumes of an ice-cold 50 mM Tris-HCl buffer (pH 7.6) and were centrifuged (MPW Med. Instruments, Warsaw, Poland) at 20,000× g for 20 min (0–4 °C). The cell pellet was resuspended in the Tris-HCl buffer and centrifuged again. Radioligand-binding assay was performed in plates (MultiScreen/Millipore, Burlington, MA, USA). The final incubation mixture (final volume 300 μL) consisted of 240 μL of the membrane suspension, 30 μL of [3H]-Prazosin (0.2 nM) solution, and 30 μL of the buffer containing seven to eight concentrations (10^−11 to 10^−4 M) of the tested compounds. For measuring the unspecific binding, phentolamine, 10 μM (in the case of [3H]-Prazosin) was applied. The incubation was terminated by rapid filtration over glass fiber filters (Whatman GF/C, Sigma-Aldrich) using a vacuum manifold (Millipore). The filters were then washed twice with the assay buffer and placed in scintillation vials with a liquid-scintillation cocktail. Radioactivity was measured in a WALLAC 1409 DSA liquid-scintillation counter (BioSurplus, San Diego, CA, USA).
as §3

[3] = system: arterial blood pressure of normotensive Wistar rats; assay: Influence on blood pressure in normotensive anesthetized rats after i.v. administration; type: in vivo, rat; conditions: for Diastolic blood pressure / Systolic blood pressure: 2.0 mg/kg i.v., mean, n = 6
Procedure: In the next step, the hypotensive activity of novel compounds 1–3, 5–9, and 11–14 was determined after i.v. administration to normotensive anesthetized rats. All results are shown in Supplementary Table S1.
The normotensive rats were anesthetized with thiopental (75 mg/kg) by intraperitoneal injection (i.p.). The left carotid artery was cannulated with a polyethylene tub filled with heparin in saline to facilitate pressure measurements using a PowerLab Apparatus (ADInstruments, Sydney, Australia). Blood pressure was measured immediately before administration of the tested compounds or vehicle—time 0 min (initial blood pressure) and 60 min thereafter. Initial blood pressure before administration of the tested chemicals in all experimental groups was similar. The tested compounds were dissolved in a specific vehicle: ethyl alcohol 5% − kolliphor 5% − water 90%. All tested chemicals were administrated intravenously (i.v.) at a constant volume of 1 mL/kg after 20 min of stabilization period. The compounds were tested at a starting dose of 2 mg/kg. If the hypotensive activity was found, the dose was reduced by half. The dosing was continued until the hypotensive effects disappeared. Urapidil was used as a reference compound.
as §3

[4] = target: T2, human adrenergic receptor α1B (Homo sapiens, UniProt P35368); assay: Intrinsic activity, aequorin luminescence functional assay at α1B-AR; type: cell-based; conditions: for α1B-AR Profile: agonist/antagonist profile; for IC50: cells expressing aequorin and human α1B, against phenylephrine, means of three independent experiments in duplicates; for Selectivity Ratio α1A/α1B: selectivity for α1B-AR (IC50(α1A-AR)/IC50(α1B-AR))
T2 sequence (P35368 1-520): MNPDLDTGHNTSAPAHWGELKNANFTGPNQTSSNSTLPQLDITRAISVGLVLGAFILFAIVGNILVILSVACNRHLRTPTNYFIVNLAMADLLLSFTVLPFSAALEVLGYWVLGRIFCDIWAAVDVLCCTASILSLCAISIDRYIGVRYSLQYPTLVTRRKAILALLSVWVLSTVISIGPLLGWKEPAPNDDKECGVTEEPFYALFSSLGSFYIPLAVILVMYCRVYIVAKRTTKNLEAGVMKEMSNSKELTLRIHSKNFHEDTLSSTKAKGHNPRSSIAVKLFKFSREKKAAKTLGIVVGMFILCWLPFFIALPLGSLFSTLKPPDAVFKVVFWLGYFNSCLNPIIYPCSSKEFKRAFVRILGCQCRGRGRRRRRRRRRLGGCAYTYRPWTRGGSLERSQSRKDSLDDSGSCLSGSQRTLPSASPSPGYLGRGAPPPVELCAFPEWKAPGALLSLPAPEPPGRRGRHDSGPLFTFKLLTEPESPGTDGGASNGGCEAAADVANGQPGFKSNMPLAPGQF
Procedure: as §1, §2, §3

[5] = 0 min (initial, before administration)

Compound	melting point	α1A-AR Profile [1]	IC50 [1]	Selectivity Ratio α1B/α1A [1]	Ki [2]	Diastolic blood pressure [3, 5]	Systolic blood pressure [3, 5]	Diastolic blood pressure ([3]; 5 min)	Systolic blood pressure ([3]; 5 min)	Diastolic blood pressure ([3]; 10 min)	Systolic blood pressure ([3]; 10 min)	Diastolic blood pressure ([3]; 20 min)	Systolic blood pressure ([3]; 20 min)	Diastolic blood pressure ([3]; 30 min)	Systolic blood pressure ([3]; 30 min)	Diastolic blood pressure ([3]; 40 min)	Systolic blood pressure ([3]; 40 min)	Diastolic blood pressure ([3]; 50 min)	Systolic blood pressure ([3]; 50 min)	Diastolic blood pressure ([3]; 60 min)	also measured
COc1ccccc1N1CCN(CCCN2C(=O)N(Cc3ccc(Cl)cc3Cl)C(=O)C2(C)C)CC1.Cl [Compound 1, 3-(2,4-dichlorobenzyl)-1-(3-(4-(2-methoxyphenyl)piperazin-1-yl)propyl)-5,5-dimethylimidazolidine-2,4-dione hydrochloride]	201 to 203 °C	Antagonist	< 100 nM and 90.6 nM	0.12	31 nM	101.0	133.3	88.3	120.3	82.3	113.0	82.2	112.2	81.3	114.2	80.8	114.7	81.7	116.0	83.3	Systolic blood pressure ([3]; 60 min): 117.5; effect on systolic and diastolic blood pressure (in words) ([3]; i.v., normotensive anesthetized rats): statistically significant reduction; α1B-AR Profile [4]: Antagonist; IC50 [4]: < 100 nM and < 11 nM and 10.7 nM; Selectivity Ratio α1A/α1B [4]: 8.46
COc1cccc(N2CCN(CC(O)CN3C(=O)N(Cc4ccc(Cl)cc4Cl)C(=O)C3(C)C)CC2)c1.Cl (stereo not shown) [Compound 14, 3-(2,4-dichlorobenzyl)-1-(2-hydroxy-3-(4-(3-methoxyphenyl)piperazin-1-yl)propyl)-5,5-dimethylimidazolidine-2,4-dione hydrochloride]	177 to 179 °C	Antagonist	1220 nM	1.12	289 nM	100.8	132.5	100.3	132.3	100.7	132.0	96.0	129.3	96.0	127.7	97.3	125.8	94.3	124.5	92.0	Systolic blood pressure ([3]; 60 min): 124.3; α1B-AR Profile [4]: Antagonist; IC50 [4]: 1370 nM; Selectivity Ratio α1A/α1B [4]: 0.89
CC1(C)C(=O)N(Cc2ccc(Cl)cc2Cl)C(=O)N1CCCN1CCN(c2cccc(Cl)c2Cl)CC1.Cl [Compound 2, 3-(2,4-dichlorobenzyl)-1-(3-(4-(2,3-dichlorophenyl)piperazin-1-yl)propyl)-5,5-dimethylimidazolidine-2,4-dione hydrochloride]	185 to 187 °C	Antagonist	1730 nM	0.66	535 nM	100.7	129.3	98.5	126.7	96.8	124.2	92.8	121.7	90.3	121.2	89.3	120.2	88.0	120.3	88.0	Systolic blood pressure ([3]; 60 min): 119.3; α1B-AR Profile [4]: Antagonist; IC50 [4]: 1150 nM; Selectivity Ratio α1A/α1B [4]: 1.51
